Numbers after ± are expanded uncertainties.
How the values were obtained:
[1] = Crystal; DTA
[2] = Molar enthalpy of transition or fusion; conditions: Crystal; DSC

Normal melting temperature [1] [°C] | Molar enthalpy of transition or fusion [2] [kcal/mol] | Structure (SMILES)
195.6 ± 0.5 | 8.34 ± 0.287 | Nc1ccc(S(=O)(=O)Nc2ccc(Cl)cc2)c(Cl)c1 [4-amino-2-chloro-N-(4-chlorophenyl)benzenesulfonamide]
125.1 ± 0.5 | 8.01 ± 0.287 | O=S(=O)(Nc1ccccc1Cl)c1ccccc1 [N-(2-chlorophenyl)benzenesulfonamide]
194.2 ± 0.5 | 9.23 ± 0.311 | COc1ccc(NS(=O)(=O)c2ccc(N)cc2)cc1 [4-amino-N-(4-methoxyphenyl)benzenesulfonamide]
155.7 ± 0.5 | 7.58 ± 0.287 | Cc1ccc(NS(=O)(=O)c2ccc(N)cc2)c(Cl)c1 [4-amino-N-(2-chloro-4-methylphenyl)benzenesulfonamide]
178.2 ± 0.5 | 9.56 ± 0.311 | Cc1cc(N)ccc1S(=O)(=O)Nc1ccccc1[N+](=O)[O-] [4-amino-2-methyl-N-(2-nitrophenyl)benzenesulfonamide]
188 ± 0.5 | 9.46 ± 0.311 | Nc1ccc(S(=O)(=O)Nc2ccc([N+](=O)[O-])cc2Br)cc1 [4-amino-N-(2-bromo-4-nitrophenyl)benzenesulfonamide]
256.6 ± 0.5 | 7.6 ± 0.287 | O=[N+]([O-])c1ccc(S(=O)(=O)Nc2nccs2)cc1 [4-nitro-N-2-thiazolylbenzenesulfonamide]
206.4 ± 0.5 | 11.3 ± 0.335 | Cc1cc(N)ccc1S(=O)(=O)Nc1ccccc1Cl [4-amino-N-(2-chlorophenyl)-2-methylbenzenesulfonamide]
238.0 ± 0.5 | 9.89 ± 0.311 | CC(=O)Nc1ccncc1NS(=O)(=O)c1ccc([N+](=O)[O-])cc1 [N-[3-[[(4-nitrophenyl)sulfonyl]amino]-4-pyridinyl]-acetamide]
179.5 ± 0.5 | 8.39 ± 0.287 | Nc1ccc(S(=O)(=O)N(c2ccccc2)c2ccccc2)cc1 [4-amino-N,N-diphenylbenzenesulfonamide]
114.1 ± 0.5 | 6.5 ± 0.263 | O=S(=O)(Nc1cccc(Cl)c1Cl)c1ccccc1 [N-(2,3-dichlorophenyl)benzenesulfonamide]
172.8 ± 0.5 | 9.87 ± 0.311 | Nc1ccc(S(=O)(=O)Nc2cc(Cl)ccc2Cl)cc1 [4-amino-N-(2,5-dichlorophenyl)benzenesulfonamide]
173.4 ± 0.5 | 8.53 ± 0.287 | Cc1cc(N)ccc1S(=O)(=O)Nc1ccc(Cl)cc1 [4-amino-N-(4-chlorophenyl)-2-methylbenzenesulfonamide]
154.8 ± 0.5 | 5.38 ± 0.263 | CCOC(=O)c1ccc(NS(=O)(=O)c2ccccc2)nc1 [ethyl 6-(phenylsulfonamido)nicotinate]
149.6 ± 0.5 | 8.8 ± 0.287 | Cc1cc(Cl)ccc1NS(=O)(=O)c1ccc(N)cc1 [4-amino-N-(4-chloro-2-methylphenyl)benzenesulfonamide]
188.1 ± 0.5 | 9.49 ± 0.311 | Nc1ccc(S(=O)(=O)Nc2cc(Cl)c(Cl)cc2Cl)cc1 [4-amino-N-(2,4,5-trichlorophenyl)benzenesulfonamide]
121.5 ± 0.5 | 6.17 ± 0.263 | O=S(=O)(Nc1ccc(Cl)cc1)c1ccccc1 [N-(4-chlorophenyl)benzenesulfonamide]
204.5 ± 0.5 | 10.9 ± 0.311 | Cc1ccc(NS(=O)(=O)c2ccc(N)cc2)cc1Cl [4-amino-N-(3-chloro-4-methylphenyl)benzenesulfonamide]
131.0 ± 0.5 | 6.72 ± 0.287 | O=S(=O)(Nc1ncccc1Cl)c1ccccc1 [N-(3-chloro-2-pyridinyl)benzenesulfonamide]
105.7 ± 0.5 | 4.64 ± 0.263 | CCN(CC)S(=O)(=O)c1ccc(N)cc1 [4-amino-N,N-diethylbenzenesulfonamide]
194.8 ± 0.5 | 5.69 ± 0.263 | Nc1ccc(S(=O)(=O)Nc2ccc(Cl)cc2)cc1 [4-amino-N-(4-chlorophenyl)benzenesulfonamide]
232 ± 0.5 | 12.3 ± 0.335 | Nc1ccc(S(=O)(=O)Nc2ccccc2Cl)c(Cl)c1 [4-amino-2-chloro-N-(2-chlorophenyl)benzenesulfonamide]
171.5 ± 0.5 | 7.1 ± 0.287 | CN(C)S(=O)(=O)c1ccc(N)cc1 [4-amino-N,N-dimethylbenzenesulfonamide]
181.2 ± 0.5 | 9.78 ± 0.311 | Nc1ccc(S(=O)(=O)Nc2cccc(Cl)c2Cl)cc1 [4-amino-N-(2,3-dichlorophenyl)benzenesulfonamide]
110.4 ± 0.5 | 5.62 ± 0.263 | O=S(=O)(Nc1ccccc1)c1ccccc1 [N-phenylbenzenesulfonamide]
98.7 ± 0.5 | 5.33 ± 0.263 | O=[N+]([O-])c1ccccc1NS(=O)(=O)c1ccccc1 [N-(2-nitrophenyl)benzenesulfonamide]
161.0 ± 0.5 | 10.9 ± 0.311 | Cc1ccc(NS(=O)(=O)c2ccc([N+](=O)[O-])cc2)nc1 [N-(5-methylpyridin-2-yl)-4-nitrobenzenesulfonamide]
109.1 ± 0.5 | 4.09 ± 0.263 | CNS(=O)(=O)c1ccc(N)cc1 [4-amino-N-methylbenzenesulfonamide]
163.1 ± 0.5 | 8.68 ± 0.287 | CCc1ccc(NS(=O)(=O)c2ccc(N)cc2)cc1 [4-amino-N-(4-ethylphenyl)benzenesulfonamide]
149.6 ± 0.5 | 8.8 ± 0.287 | Cc1ccc(Cl)cc1NS(=O)(=O)c1ccc(N)cc1 [4-amino-N-(5-chloro-2-methylphenyl)benzenesulfonamide]
